From patent publication US8394758B2, “Tumor-targeting peptides and uses thereof” (Academia Sinica, priority 2008, dated 2013)

Experiments:
tumor xenografts = test: Histopathology of tumor tissues by H&E staining; assay type: in vivo, SCID mice; details: doxorubicin 1 mg/kg twice a week for four weeks
Protocol: Mouse body weights and tumor lengths/widths were measured twice a week with calipers. The volume of a tumor was calculated using the formula: length×(width)×0.52.

[1] = system: Non-small cell lung cancer xenografts; test: Doxorubicin levels in tumor tissue and tumor cell nuclei (spectrofluorometry); assay type: in vivo, SCID mice; details: 2 mg/kg doxorubicin
Protocol: Non-small cell lung cancer xenografts (˜300 mm^3) were induced in SCID mice following the method described in Example 2 above. These mice were treated with PIVO-2-LD, PIVO-8-LD, PIVO-24-LD, LD, and FD at a doxorubicin dose of 2 mg/kg and sacrificed 1 h, 4 h, or 24 h later. Blood samples were collected from the mice via submaxillary punctures and plasma samples were prepared therefrom. In addition, xenografts and normal organs were removed, part of them being homogenized to isolate cell nuclei. Doxorubicin was extracted either from the tumor tissue or from the nuclei following the method described in Laginha et al., Clin. Cancer Res. 11:6944-6949, 2005 and Mayer et al., J. Pharmacol. Exp. Ther. 280:1406-1414, 1997. The amount of doxorubicin was determined by spectrofluorometry at λex 485/20 nm and λcm 645/40 nm (Synergy HT Multi-Detection Microplate Reader, BioTek Instruments, Winooski, Vt. 05404 USA). Based on the amounts of doxorubicin in tumor tissues at different time points, concentration-time curves of doxorubicin were prepared and the areas under the curves from 0-48 hours (AUC0-48 hours) were determined.

[2] = system: H460 cells (lung cancer) xenografts; test: In vivo homing of phage clones to lung cancer xenografts, alone or with synthetic peptide (phage titer); parameters: species or system SCID mice; details: 100 μg synthetic peptide co-injected
Protocol: Eight minutes after the injection, the phage-treated SCID mice were perfused with 50 ml PBS to wash away phage particles unbound to tissues. Normal organs (e.g., lung, heart, brain) and tumor mass were removed from the mice, weighed, washed with PBS, and homogenized to release tissue-bound phage particles, if any. The released phage particles were titered using bacterium ER2738 (New England BioLabs, MA, USA) grown on IPTG-X-gal-containing agar plates, and amplified in the same bacterium following the manufacturer's protocol.
H460 cells (a lung cancer cell line) were injected subcutaneously (s.c.) into the dorsolateral flanks of SCID mice (4-6 weeks of age) to form lung cancer xenografts. Each of phage clones IVO 2, IVO 8, and IVO 24, displaying peptide SVSVGMKPSPRP (SEQ ID NO:1), SNPFSKPYGLTV (SEQ ID NO:3), and YPHYSLPGSSTL (SEQ ID NO:5), respectively, was injected (i.v.) into the tail veins of the mice bearing the xenografts (˜100 mm^3), either alone or with 100 μg synthetic peptides SVSVGMKPSPRP (SEQ ID NO:1), SNPFSKPYGLTV (SEQ ID NO:3), or YPHYSLPGSSTL (SEQ ID NO:5). Normal organs and tumor mass were removed from these mice and processed as described in Example 1 above. The phage titers in the normal organs and tumor mass were determined following the procedure also described in Example 1.

[3] = system: lung tumor xenografts, tumor neovasculature; test: Immuno-staining of phage (anti-M13) and blood vessels (anti-CD31) in lung tumor xenografts and normal organs; assay type: in vivo, SCID mice
Excerpt: The accumulation of the phage clones in tumor mass was further examined by an immuno-staining assay, using an anti-M13 phage monoclonal antibody (Amersham Biosciences, Uppsala, Sweden). Briefly, after injection of the phage clones, normal organ samples and tumor samples were obtained, each divided into two parts. Bound phage particles were released from one part of the samples and titered using bacterium ER2738. The other part of each of the samples was embedded in Optimal Cutting Temperature (OCT, Tissue-Tek, NL, USA). The OCT-embedded samples (frozen) were sectioned (5 micron) and transferred to cold PBS. The sections were fixed with acetone-methanol (1:1) on slides, washed with PBS, and immersed in a blocking buffer (1% BSA in PBS) for 1 h. Then, the slides were incubated with rat anti-mouse CD31 antibody (an antibody recognizing blood vessels; BD Pharmingen, MA, USA.) and rabbit anti-rat Ig antibody (Stressgen, Canada), and immersed in Rhodamine labeled goat anti-rabbit Ig antibody (Jackson ImmunoResearch, PA, USA). The slides were further incubated with mouse anti-M13 phage monoclonal antibody (Amersham Biosciences, Uppsala, Sweden), then with FITC-labeled goat anti-mouse Ig antibody (Jackson ImmunoResearch, PA, USA), and finally immersed in a solution containing Hoechst 33258 (Molecular Probe, OR, USA). After being washed and mounted with a mounting medium (Vector, Calif., USA), the slides were examined under a Leica Confocal Microscope (TCS-SP5-AOBS). Images of the slides were processed with the Leica Application Suite Advanced Fluorescence software.

COc1cccc2c1C(=O)c1c(O)c3c(c(O)c1C2=O)C[C@@](O)(C(=O)CO)C[C@@H]3O[C@H]1C[C@H](N)[C@H](O)[C@H](C)O1 [FD, doxorubicin]
necrotic/apoptotic area (combined) in tumor xenografts (tumor xenografts): only a moderate necrotic/apoptotic area | Nucleus (AUC0-48 h) doxorubicin ([1]; tumor cell nuclei (bioavailable doxorubicin)): 3.68 µg·h/g | Tumor (AUC0-48 h) doxorubicin ([1]; tumor tissue): 10.23 µg·h/g

YPHYSLPGSSTL (Tumor-Targeting Peptide)
inhibition by synthetic peptide of accumulation in tumor mass of the phage clone displaying the same peptide [2]: inhibited accumulation | blocking by synthetic peptide of binding of the corresponding phage clone to lung tumor tissues [3]: blocked binding

SNPFSKPYGLTV (Tumor-Targeting Peptide)
inhibition by synthetic peptide of accumulation in tumor mass of the phage clone displaying the same peptide [2]: inhibited accumulation | blocking by synthetic peptide of binding of the corresponding phage clone to lung tumor tissues [3]: blocked binding

SVSVGMKPSPRP (Tumor-Targeting Peptide)
inhibition by synthetic peptide of accumulation in tumor mass of the phage clone displaying the same peptide [2]: inhibited accumulation of phage clone IVO 2 | blocking by synthetic peptide of binding of the corresponding phage clone to lung tumor tissues [3]: blocked binding
